The NIST ThermoML archive (doi:10.1016/j.fluid.2012.07.027)
± gives the expanded uncertainty stated by the source.

Details: Liquid, Ebulliometric method (Recirculating still)

CCCCCOCCOCCOCCCCC [1-(2-(2-(pentyloxy)ethoxy)ethoxy)pentane]
vapor or sublimation pressure (427.5 K): 2 ± 0.03 kPa
vapor or sublimation pressure (437.5 K): 3 ± 0.03 kPa
vapor or sublimation pressure (444.6 K): 4 ± 0.04 kPa
vapor or sublimation pressure (450.3 K): 5 ± 0.05 kPa
vapor or sublimation pressure (455.1 K): 6 ± 0.05 kPa
vapor or sublimation pressure (459.3 K): 7 ± 0.06 kPa
vapor or sublimation pressure (461.2 K): 7.5 ± 0.06 kPa
vapor or sublimation pressure (463 K): 8 ± 0.07 kPa
vapor or sublimation pressure (466.2 K): 9 ± 0.07 kPa
vapor or sublimation pressure (469.1 K): 10 ± 0.08 kPa
vapor or sublimation pressure (471.7 K): 11 ± 0.09 kPa
vapor or sublimation pressure (474.1 K): 12 ± 0.09 kPa
vapor or sublimation pressure (476.3 K): 13 ± 0.1 kPa
vapor or sublimation pressure (478.6 K): 14 ± 0.1 kPa
vapor or sublimation pressure (480.7 K): 15 ± 0.12 kPa
vapor or sublimation pressure (488.8 K): 20 ± 0.14 kPa
vapor or sublimation pressure (495.7 K): 25 ± 0.15 kPa
